Source: ChEMBL document CHEMBL2040815, “Sentulic acid: a cytotoxic ring A-seco triterpenoid from Sandoricum koetjape Merr” (Bioorg Med Chem Lett, 2012)
The source made the active and inactive calls. No cut-off for these calls is given here.

Legend:
HL-60 [1] = experiment: Cytotoxicity against human HL60 cells assessed as inhibition of cell proliferation at 25 uM after 24 to 72 hrs by trypan blue dye exclusion test relative to control; assay type: functional
HL-60 [2] = experiment: Cytotoxicity against human HL60 cells after 48 hrs by MTT assay; assay type: functional, cell-based; settings: HL-60, 48 h
HL-60 [3] = experiment: Cytotoxicity against human HL60 cells assessed as decrease in cell viability after 24 to 72 hrs by trypan blue dye exclusion test; assay type: functional, cell-based
HL-60 [4] = experiment: Induction of apoptosis in human HL60 cells assessed as condensation of chromatin at 50 to 100 uM after 24 hrs by Hoechst 33342 staining; assay type: functional, cell-based
HL-60 [5] = experiment: Cytotoxicity against human HL60 cells assessed as inhibition of cell proliferation at 100 uM after 24 to 72 hrs by trypan blue dye exclusion test; assay type: functional, cell-based
HL-60 [6] = experiment: Induction of apoptosis in human HL60 cells assessed as DNA fragmentation laddering at 100 uM by agarose gel electrophoresis; assay type: functional, cell-based
HL-60 [7] = experiment: Induction of apoptosis in human HL60 cells assessed as fragmentation of the nuclei at 50 to 100 uM after 24 hrs by Hoechst 33342 staining; assay type: functional, cell-based

| Compound | inhibition at 25 µM (HL-60 [1]) [%] | IC50 (HL-60 [2]) [µM] | Activity (HL-60 [3]) | Activity (HL-60 [4]) | inhibition (HL-60 [5]) | Activity (HL-60 [6]) | Activity (HL-60 [7]) |
| --- | --- | --- | --- | --- | --- | --- | --- |
| CC1(C)CC[C@]2(C)CC[C@]3(C(=O)O)C(=CC[C@@H]4[C@@]5(C)CCC(=O)C(C)(C)[C@@H]5CC[C@]43C)[C@@H]2C1 | 50 | 27.4 | Dose-dependent effect | Active | Active | Active | Active |
| C=C(C)[C@@H]1CC[C@]2(C)[C@H](CC=C3[C@@H]4CC(C)(C)CC[C@]4(C)CC[C@]32C(=O)O)[C@@]1(C)CCC(=O)O [SENTULIC ACID] | 50 | 37 | Dose-dependent effect | Active | Active | Active | Active |
